Test: Polymorphic stability of crystalline Form-R
Type: physicochemical
Conditions: at various conditions (not specified)

CN(C)C/C=C/C(=O)Nc1cc2c(Nc3ccc(F)c(Cl)c3)ncnc2cc1O[C@H]1CCOC1.O=C(O)/C=C\C(=O)O [Form-R, N-[4-[(3-chloro-4-fluorophenyl)amino]-7-[[(3S)-tetrahydro-3-furanyl]oxy]-6-quinazolinyl]-4-(dimethylamino)-(2E)-2-butenamide (2Z)-2-butenedioate (1:2)]
stability of the crystalline form / conversion to other crystalline forms: stable at various conditions and does not convert to any of the other crystalline forms

From patent publication US10550107B2, “Process for the preparation of N-[4-[(3-chloro-4-fluoro phenyl) amino]-7-[[(3s-tetrahydro-3-furanyl]oxy]-6-quinazolinyl]-4-(dimethyl amino)-(2E)-2-butenamide (2Z)-2-butenedioate (1:2) and its polymorphs thereof” (MSN LABORATORIES PRIVATE LIMITED, priority 2015, dated 2020)
